≈ marks a conversion by molar mass, not a printed value.
What was measured:
A549 = experiment: Cytotoxicity against human A549 lung tumor cells; assay type: functional, cell-based
HT-29 = experiment: Cytotoxicity against human HT29 colon tumor cells; assay type: functional, cell-based

Compound	IC50 (A549)	IC50 (HT-29)
CC(C)[C@]12O[C@H]1[C@@H]1O[C@]13[C@]1(O[C@H]1C[C@H]1C4=C(CC[C@@]13C)C(=O)OC4)[C@H]2OC(=S)n1ccnc1	5 µg/mL (≈ 10.6 µM)	0.88 µg/mL (≈ 1.87 µM)
CC(C)[C@]12O[C@H]1[C@]13O[C@H]1C[C@H]1C4=C(CC[C@]1(C)[C@@]31O[C@H]1C2=O)C(=O)OC4	0.85 µg/mL (≈ 2.37 µM)	0.7 µg/mL (≈ 1.95 µM)
CC(C)C1=C[C@]23O[C@H]2C[C@H]2C4=C(CC[C@]2(C)[C@@]32O[C@H]2C1=O)C(=O)OC4	1.2 µg/mL (≈ 3.5 µM)	0.67 µg/mL (≈ 1.96 µM)
CC(C)[C@]12O[C@H]1[C@]13O[C@H]1C[C@H]1C4=C(CC[C@]1(C)[C@@]31O[C@H]1[C@@H]2O)C(=O)OC4	0.27 µg/mL (≈ 0.749 µM)	0.15 µg/mL (≈ 0.416 µM)
CC(C)[C@]12O[C@H]1[C@]13O[C@H]1C[C@H]1C4=C(CC[C@]1(C)[C@@]31O[C@H]1[C@H]2O)C(=O)OC4	> 10 µg/mL	> 10 µg/mL
CC(C)[C@]12O[C@H]1[C@@H]1O[C@]13[C@]1(O[C@H]1C[C@H]1C4=C(CC[C@@]13C)C(=O)OC4)[C@@H]2OC(=S)n1ccnc1	0.024 µg/mL (≈ 0.051 µM)	0.004 µg/mL (≈ 0.0085 µM)
CC(C)[C@]12O[C@H]1[C@@H]1O[C@@]13[C@@]1(C)CCC4=C(COC4=O)[C@@H]1C[C@@H]1O[C@@]13C2=O [TRIPTONIDE]		< 0.00046 µg/mL

Reference: ChEMBL document CHEMBL1146928, “Semisynthesis of C-ring modified triptolide analogues and their cytotoxic activities” (Bioorg Med Chem Lett, 2006)
